Measurements reported in ChEMBL document CHEMBL3822371, “Rapid Discovery and Structure-Activity Relationships of Pyrazolopyrimidines That Potently Suppress Breast Cancer Cell Growth via SRC Kinase Inhibition with Exceptional Selectivity over ABL Kinase” (J Med Chem, 2016).
Activity calls are given as the source filed them. No cut-off for these calls is given here.

Experiments:
Cytochrome P450 2D6 = Cytochrome P450 2D6 (Homo sapiens, UniProt P10635); assay: Inhibition of CYP2D6 (unknown origin) at 10 uM; type: ADME
MDA-MB-231 [1] = assay: Cytotoxicity against human MDA-MB-231 cells assessed as reduction in cell viability at >10 nM after 24 hrs; type: cell-based; details: mda-mb-231, 24 h
Plasma [2] = assay: Metabolic stability in mouse plasma at 1 uM after 20 to 120 mins by LC-MS/MS analysis; type: ADME, cell-free
[3] = target: T1, Proto-oncogene tyrosine-protein kinase Src (Homo sapiens, UniProt P12931)
Cytochrome P450 3A4 = Cytochrome P450 3A4 (Homo sapiens, UniProt P08684); assay: Inhibition of CYP3A4 (unknown origin) at 10 uM; type: ADME
Danio rerio [4] = organism: Danio rerio; assay: Effect on the development of the wild-type zebrafish embryos at 500 uM treated for 4 hrs measured at 48 hrs by fluorescent microscopy; type: ADME, organism-based; details: in vivo
Mus musculus = assay: In vivo inhibition of SRC phosphorylation at tyrosine 416 in human HCT116 cells xenografted in mouse at 50 mg/kg via oral gavage administered daily for 3 days measured 3 hrs post last dose by immunohistochemistry; type: functional, organism-based; details: HCT-116
[5] = target: Focal adhesion kinase 1 (Mus musculus) (UniProt P34152); assay: Inhibition of FAK phosphorylation at tyrosine 861 in SRC, YES and FYN deficient mouse SYF cells at 3 to 100 nM preincubated for 1.5 hrs followed by serum stimulation for 1 hr by Western blot analysis; type: cell-based
Plasma [6] = assay: Metabolic stability in rat plasma at 1 uM after 20 to 120 mins by LC-MS/MS analysis; type: ADME, cell-free
MCF7 [7] = assay: Induction of apoptosis in human MCF7 cells assessed as caspase 3/7 activity at >/= 100 nM after 5 days using phase contrast and fluorescent microscopy; type: functional, cell-based
MDA-MB-231 [8] = assay: Antimigratory activity in human MDA-MB-231 cells at >10 nM after 24 hrs by microscopy based scratch-wound cell migration assay; type: functional
Plasma [9] = assay: Metabolic stability in human plasma at 1 uM after 20 to 120 mins by LC-MS/MS analysis; type: ADME, cell-free
Cytochrome P450 1A2 = target: T2, Cytochrome P450 1A2 (Homo sapiens, UniProt P05177); assay: Inhibition of CYP1A2 (unknown origin) at 10 uM; type: ADME
T2 sequence (P05177 whole entry): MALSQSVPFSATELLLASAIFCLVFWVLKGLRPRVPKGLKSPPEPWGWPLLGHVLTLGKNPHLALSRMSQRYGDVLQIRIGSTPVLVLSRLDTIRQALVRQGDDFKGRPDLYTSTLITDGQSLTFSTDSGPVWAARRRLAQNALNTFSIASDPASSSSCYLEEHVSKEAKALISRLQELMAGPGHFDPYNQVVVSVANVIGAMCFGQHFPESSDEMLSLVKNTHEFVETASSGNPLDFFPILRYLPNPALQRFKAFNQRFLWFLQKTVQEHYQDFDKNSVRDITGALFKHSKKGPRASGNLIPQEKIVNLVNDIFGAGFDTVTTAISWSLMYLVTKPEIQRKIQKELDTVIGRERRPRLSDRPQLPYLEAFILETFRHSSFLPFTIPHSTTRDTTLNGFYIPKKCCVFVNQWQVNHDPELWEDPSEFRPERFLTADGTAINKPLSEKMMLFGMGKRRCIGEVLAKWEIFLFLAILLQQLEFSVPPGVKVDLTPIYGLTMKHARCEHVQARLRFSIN

Cytochrome P450 2C19 = Cytochrome P450 2C19 (Homo sapiens, UniProt P33261); assay: Inhibition of CYP2C19 (unknown origin) at 10 uM; type: ADME
[10] = target: Mast/stem cell growth factor receptor Kit (Homo sapiens, UniProt P10721); assay: Inhibition of human KIT using poly[Glu,Tyr]4:1 as substrate in presence of [gamma-33P]ATP
[11] = Antiproliferative activity against SRC, YES and FYN deficient mouse SYF cells at 3 to 100 nM; type: cell-based; details: 0.1 µM
Cytochrome P450 2C9 = Cytochrome P450 2C9 (Homo sapiens, UniProt P11712); assay: Inhibition of CYP2C9 (unknown origin) at 10 uM; type: ADME
MCF7 [12] = assay: cells; details: Homo sapiens, MCF7, 120 h
[13] = target: Platelet-derived growth factor receptor alpha (Homo sapiens, UniProt P16234); assay: Inhibition of human PDGFRalpha using poly[Glu,Tyr]4:1 as substrate in presence of [gamma-33P]ATP
[14] = target: Proto-oncogene tyrosine-protein kinase receptor Ret (Homo sapiens, UniProt P07949); assay: Inhibition of human RET using poly[Glu,Tyr]4:1 as substrate in presence of [gamma-33P]ATP
[15] = target: Tyrosine-protein kinase ABL1 (Homo sapiens, UniProt P00519)
[16] = target: T1, Proto-oncogene tyrosine-protein kinase Src; assay: biochemical; type: cell-based
[17] = target: Serine/threonine-protein kinase mTOR (Homo sapiens, UniProt P42345); assay: Inhibition of human mTOR using poly[Glu,Tyr]4:1 as substrate in presence of [gamma-33P]ATP
[18] = target: Tyrosine-protein kinase Fyn (Homo sapiens, UniProt P06241); assay: Inhibition of human FYN using poly[Glu,Tyr]4:1 as substrate in presence of [gamma-33P]ATP
[19] = target: Tyrosine-protein kinase Yes (Homo sapiens, UniProt P07947); assay: Inhibition of human YES using poly[Glu,Tyr]4:1 as substrate in presence of [gamma-33P] ATP
MCF7 [20] = assay: Antiproliferative activity against human MCF7 cells assessed as blockage of cell division at […] after 48 to 120 hrs by microscopy based time-lapse imaging assay; type: functional
MCF7 [21] = assay: Antiproliferative activity against human MCF7 cells assessed as reduction in cell confluence level at […] after 5 days by microscopy based time-lapse imaging assay; type: functional
MDA-MB-231 [22] = assay: cells; details: Homo sapiens, MDA-MB-231, 120 h
[23] = Solubility of the compound in water at pH 7; type: physicochemical
Danio rerio [24] = organism: Danio rerio; assay: Toxicity in wild-type zebrafish embryos assessed as mortality at >10 uM treated for 4 hrs measured after 48 hrs by fluorescent microscopy; type: organism-based; details: in vivo
[25] = Solubility of the compound in water at pH 2.6; type: physicochemical
[26] = Half life in nude mouse at 10 mg/kg, […] via oral gavage; type: ADME, organism-based; details: in vivo
Danio rerio [27] = organism: Danio rerio; assay: Cardiotoxicity in wild-type zebrafish embryos at >10 uM treated for 4 hrs measured after 48 hrs by fluorescent microscopy; type: organism-based; details: in vivo
Danio rerio [28] = organism: Danio rerio; assay: Cardiotoxicity in wild-type zebrafish embryos assessed as heart enlargement at 1 to 10 uM treated for 4 hrs measured after 48 hrs by fluorescent microscopy; type: toxicity, organism-based; details: in vivo
MDA-MB-231 [29] = assay: Increase in total SRC in human MDA-MB-231 cells preincubated for 1.5 hrs followed by serum stimulation for 1 hr by Western blot analysis; type: cell-based; details: mda-mb-231, 1 h

Chain of Proto-oncogene tyrosine-protein kinase receptor Ret (P07949 whole entry): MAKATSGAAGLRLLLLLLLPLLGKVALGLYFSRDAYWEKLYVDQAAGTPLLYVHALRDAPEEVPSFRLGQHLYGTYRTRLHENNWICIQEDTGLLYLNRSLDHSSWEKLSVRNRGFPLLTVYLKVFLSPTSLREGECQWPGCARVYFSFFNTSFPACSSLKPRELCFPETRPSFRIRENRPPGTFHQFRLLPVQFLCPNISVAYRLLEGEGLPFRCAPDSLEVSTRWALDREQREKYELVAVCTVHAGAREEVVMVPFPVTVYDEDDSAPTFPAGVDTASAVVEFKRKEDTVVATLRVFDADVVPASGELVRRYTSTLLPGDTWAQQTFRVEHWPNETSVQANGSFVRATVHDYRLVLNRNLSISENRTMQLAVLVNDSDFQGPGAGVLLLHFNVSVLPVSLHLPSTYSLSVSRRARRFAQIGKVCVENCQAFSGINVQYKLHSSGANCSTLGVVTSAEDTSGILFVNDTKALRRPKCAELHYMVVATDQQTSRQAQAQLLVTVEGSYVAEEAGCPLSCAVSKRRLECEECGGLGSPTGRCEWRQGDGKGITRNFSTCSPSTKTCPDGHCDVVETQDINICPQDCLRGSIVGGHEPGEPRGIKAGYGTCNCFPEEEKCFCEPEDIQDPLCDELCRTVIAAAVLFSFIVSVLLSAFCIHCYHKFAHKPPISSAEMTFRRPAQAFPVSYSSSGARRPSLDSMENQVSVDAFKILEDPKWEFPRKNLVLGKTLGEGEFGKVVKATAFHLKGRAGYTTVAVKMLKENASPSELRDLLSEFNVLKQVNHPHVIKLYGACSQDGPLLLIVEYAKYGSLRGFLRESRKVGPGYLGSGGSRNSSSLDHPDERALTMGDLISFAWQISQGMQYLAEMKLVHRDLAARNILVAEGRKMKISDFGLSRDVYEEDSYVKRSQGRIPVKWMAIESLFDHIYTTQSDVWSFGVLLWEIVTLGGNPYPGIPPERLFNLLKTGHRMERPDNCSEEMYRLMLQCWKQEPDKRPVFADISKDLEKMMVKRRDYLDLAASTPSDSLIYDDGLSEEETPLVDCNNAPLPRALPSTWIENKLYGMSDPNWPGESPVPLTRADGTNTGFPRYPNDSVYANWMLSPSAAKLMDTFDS
Chain of Platelet-derived growth factor receptor alpha (P16234 whole entry): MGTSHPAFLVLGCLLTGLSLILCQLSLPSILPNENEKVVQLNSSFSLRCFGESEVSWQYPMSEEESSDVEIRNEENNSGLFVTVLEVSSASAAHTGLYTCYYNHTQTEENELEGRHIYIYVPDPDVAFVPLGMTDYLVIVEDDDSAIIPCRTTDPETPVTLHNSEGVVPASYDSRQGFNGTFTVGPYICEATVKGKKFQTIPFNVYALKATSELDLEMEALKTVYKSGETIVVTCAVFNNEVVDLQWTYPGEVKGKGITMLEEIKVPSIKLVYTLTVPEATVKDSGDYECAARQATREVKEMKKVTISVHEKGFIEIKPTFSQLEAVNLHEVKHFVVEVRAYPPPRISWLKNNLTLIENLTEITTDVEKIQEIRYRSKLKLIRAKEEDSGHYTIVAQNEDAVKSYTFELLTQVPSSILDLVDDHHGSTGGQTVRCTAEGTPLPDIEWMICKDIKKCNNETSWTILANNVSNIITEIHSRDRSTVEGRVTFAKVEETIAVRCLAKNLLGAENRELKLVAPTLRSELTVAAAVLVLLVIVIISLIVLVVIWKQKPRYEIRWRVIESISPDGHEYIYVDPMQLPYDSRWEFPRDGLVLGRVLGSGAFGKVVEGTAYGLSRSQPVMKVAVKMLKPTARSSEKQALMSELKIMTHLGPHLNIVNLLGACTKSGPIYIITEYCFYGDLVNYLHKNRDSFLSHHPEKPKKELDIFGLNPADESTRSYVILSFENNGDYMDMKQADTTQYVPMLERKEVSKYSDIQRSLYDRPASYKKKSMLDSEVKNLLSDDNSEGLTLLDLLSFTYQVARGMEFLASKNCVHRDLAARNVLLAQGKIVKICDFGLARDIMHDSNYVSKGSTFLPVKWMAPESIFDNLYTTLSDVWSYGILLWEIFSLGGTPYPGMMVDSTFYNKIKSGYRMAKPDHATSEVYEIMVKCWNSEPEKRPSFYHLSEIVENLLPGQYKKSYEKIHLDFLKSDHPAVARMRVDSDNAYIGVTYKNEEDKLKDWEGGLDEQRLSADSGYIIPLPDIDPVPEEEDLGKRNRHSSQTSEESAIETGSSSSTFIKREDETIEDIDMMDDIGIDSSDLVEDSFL
Chain of Mast/stem cell growth factor receptor Kit (P10721 whole entry): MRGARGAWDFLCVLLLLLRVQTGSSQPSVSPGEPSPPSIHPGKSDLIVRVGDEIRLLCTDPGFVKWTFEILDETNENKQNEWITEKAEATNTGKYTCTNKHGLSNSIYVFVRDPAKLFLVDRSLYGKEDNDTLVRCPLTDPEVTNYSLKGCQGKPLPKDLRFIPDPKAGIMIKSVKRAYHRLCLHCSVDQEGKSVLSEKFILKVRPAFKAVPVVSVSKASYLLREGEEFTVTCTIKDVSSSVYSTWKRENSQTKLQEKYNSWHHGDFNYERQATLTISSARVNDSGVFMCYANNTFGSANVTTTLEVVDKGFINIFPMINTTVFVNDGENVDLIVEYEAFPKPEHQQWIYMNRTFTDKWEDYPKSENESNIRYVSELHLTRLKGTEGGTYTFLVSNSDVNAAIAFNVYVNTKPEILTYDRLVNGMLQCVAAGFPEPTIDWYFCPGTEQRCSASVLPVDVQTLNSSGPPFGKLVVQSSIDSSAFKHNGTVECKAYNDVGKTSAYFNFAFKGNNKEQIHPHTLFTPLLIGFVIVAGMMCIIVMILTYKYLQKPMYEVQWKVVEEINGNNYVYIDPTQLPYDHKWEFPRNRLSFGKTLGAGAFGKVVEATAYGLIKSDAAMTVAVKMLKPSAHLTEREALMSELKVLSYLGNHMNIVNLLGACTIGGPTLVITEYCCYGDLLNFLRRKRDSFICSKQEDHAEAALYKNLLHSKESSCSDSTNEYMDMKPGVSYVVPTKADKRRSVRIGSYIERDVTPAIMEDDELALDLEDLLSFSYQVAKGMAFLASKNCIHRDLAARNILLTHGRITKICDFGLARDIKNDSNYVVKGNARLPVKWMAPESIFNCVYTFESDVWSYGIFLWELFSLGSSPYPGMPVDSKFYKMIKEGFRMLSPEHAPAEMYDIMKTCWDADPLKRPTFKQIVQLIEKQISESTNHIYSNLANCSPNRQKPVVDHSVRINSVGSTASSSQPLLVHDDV
T1 sequence (P12931 2-536 limits assumed): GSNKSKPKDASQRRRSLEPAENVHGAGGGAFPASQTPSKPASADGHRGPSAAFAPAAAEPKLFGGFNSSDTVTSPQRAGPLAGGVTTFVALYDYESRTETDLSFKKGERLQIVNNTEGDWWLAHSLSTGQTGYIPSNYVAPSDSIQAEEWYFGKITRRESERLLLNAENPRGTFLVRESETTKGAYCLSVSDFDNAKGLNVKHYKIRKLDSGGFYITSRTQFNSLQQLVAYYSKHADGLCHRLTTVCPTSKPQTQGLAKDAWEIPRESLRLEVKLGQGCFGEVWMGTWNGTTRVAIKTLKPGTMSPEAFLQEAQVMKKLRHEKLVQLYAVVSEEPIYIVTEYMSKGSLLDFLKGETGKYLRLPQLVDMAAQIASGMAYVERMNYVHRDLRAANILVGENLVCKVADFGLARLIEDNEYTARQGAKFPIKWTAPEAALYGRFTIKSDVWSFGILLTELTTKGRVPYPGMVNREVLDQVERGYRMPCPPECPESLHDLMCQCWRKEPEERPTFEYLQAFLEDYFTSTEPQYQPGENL
Chain of Tyrosine-protein kinase Yes (P07947 whole entry): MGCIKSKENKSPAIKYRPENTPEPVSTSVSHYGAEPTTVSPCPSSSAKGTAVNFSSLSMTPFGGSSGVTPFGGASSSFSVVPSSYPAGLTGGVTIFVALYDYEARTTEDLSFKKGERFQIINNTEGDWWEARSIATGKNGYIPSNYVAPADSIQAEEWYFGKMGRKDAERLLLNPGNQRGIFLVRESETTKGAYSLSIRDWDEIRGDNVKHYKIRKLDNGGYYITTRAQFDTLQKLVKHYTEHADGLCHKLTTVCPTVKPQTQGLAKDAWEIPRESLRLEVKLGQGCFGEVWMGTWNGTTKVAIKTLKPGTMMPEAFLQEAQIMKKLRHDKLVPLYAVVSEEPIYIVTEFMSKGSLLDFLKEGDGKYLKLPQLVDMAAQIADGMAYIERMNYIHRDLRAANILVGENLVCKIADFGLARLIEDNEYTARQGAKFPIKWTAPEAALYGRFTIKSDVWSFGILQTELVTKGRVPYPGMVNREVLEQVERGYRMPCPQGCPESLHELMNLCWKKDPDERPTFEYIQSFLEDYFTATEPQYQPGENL
Chain of Cytochrome P450 3A4 (P08684 whole entry): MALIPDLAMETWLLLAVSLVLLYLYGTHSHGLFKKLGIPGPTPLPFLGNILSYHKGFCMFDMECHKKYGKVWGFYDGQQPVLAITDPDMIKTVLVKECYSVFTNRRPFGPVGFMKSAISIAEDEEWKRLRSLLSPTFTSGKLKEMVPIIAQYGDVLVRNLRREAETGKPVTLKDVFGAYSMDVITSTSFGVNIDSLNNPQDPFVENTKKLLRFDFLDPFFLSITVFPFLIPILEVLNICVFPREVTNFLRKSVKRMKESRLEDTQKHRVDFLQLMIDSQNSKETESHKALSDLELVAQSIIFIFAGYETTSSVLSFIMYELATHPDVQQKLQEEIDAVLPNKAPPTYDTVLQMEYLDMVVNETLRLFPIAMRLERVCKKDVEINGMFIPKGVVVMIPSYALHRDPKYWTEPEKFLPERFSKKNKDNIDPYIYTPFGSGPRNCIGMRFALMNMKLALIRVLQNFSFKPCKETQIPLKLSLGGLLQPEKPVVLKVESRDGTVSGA

COc1cc(-c2nn(CCN3CCC(N(C)C)CC3)c3ncnc(N)c23)ccc1NC(=O)OC(C)(C)C
inhibition (INH) (Cytochrome P450 2D6): Not Active
Activity (MDA-MB-231 [1]): Toxic
Stability (Plasma [2]): Stable
TDI [3]: inactive
inhibition (INH) (Cytochrome P450 3A4): Not Active
Activity (Danio rerio [4]): Non-toxic
inhibition (Mus musculus): Active
inhibition [5]: inactive
Stability (Plasma [6]): Stable
Activity (MCF7 [7]): Active
Activity (MDA-MB-231 [8]): Active
Stability (Plasma [9]): Stable
inhibition (INH) (Cytochrome P450 1A2): Active
inhibition (INH) (Cytochrome P450 2C19): Not Active
IC50 [10]: > 10 µM
Activity [11]: Non-toxic
inhibition (INH) (Cytochrome P450 2C9): Not Active

COc1ccc(-c2nn(CCN3CCC(CN(C)C)CC3)c3ncnc(N)c23)cc1OC
EC50 (MCF7 [12]): 18.3 µM

CCOC(Cn1nc(-c2cnc3[nH]ccc3c2)c2c(N)ncnc21)OCC
IC50 [13]: > 10 µM
IC50 [14]: 0.598 µM
IC50 [15]: 1210 nM
IC50 [16]: 2450 nM
IC50 [10]: > 10 µM
IC50 [17]: 0.328 µM
IC50 [18]: 1230 nM
IC50 [19]: 566 nM
Activity (MCF7 [20]): Active

CCOC(Cn1nc(-c2cccc(O)c2)c2c(N)ncnc21)OCC
EC50 (MCF7 [12]): 7.6 µM

Cc1ccc(-c2nn(CCN3CCN(C)CC3)c3ncnc(N)c23)cc1
Activity (MCF7 [21]): Active

CN(C)CC1CCN(CCn2nc(C#Cc3ccccc3)c3c(N)ncnc32)CC1
EC50 (MCF7 [12]): 13.5 µM

CN(C)CC1CCN(CCn2nc(-c3ccoc3)c3c(N)ncnc32)CC1
EC50 (MCF7 [12]): 57.1 µM

COc1cc(-c2nn(CCN3CCC(OC)CC3)c3ncnc(N)c23)ccc1NC(=O)OC(C)(C)C
EC50 (MDA-MB-231 [22]): 1.96 µM

CN(C)CC1CCN(CCn2nc(-c3ccc4ncccc4c3)c3c(N)ncnc32)CC1
EC50 (MCF7 [12]): 93.6 µM

Cc1ccc(-c2nn(CCN3CCC(CN(C)C)CC3)c3ncnc(N)c23)cc1
IC50 [13]: > 10 µM
IC50 [14]: > 10 µM
Activity (MCF7 [21]): Active
IC50 [10]: > 10 µM
IC50 [17]: > 10 µM

COc1ccc(-c2nn(CCN3CCC(N(C)C)CC3)c3ncnc(N)c23)cc1NC(=O)OC(C)(C)C
EC50 (MDA-MB-231 [22]): 28.6 µM

Cc1nc(Nc2ncc(C(=O)Nc3c(C)cccc3Cl)s2)cc(N2CCN(CCO)CC2)n1.O [DASATINIB]
solubility [23]: < 1 µg/mL
Activity (Danio rerio [24]): Toxic
solubility [25]: 18 mg/mL
half-life [26]: 54 min
Activity (Danio rerio [27]): Toxic
Activity (Danio rerio [28]): Toxic
Activity (MDA-MB-231 [29]): Dose-dependent effect

CN(C)C1CCN(CCn2nc(-c3ccc(NC(=O)OC(C)(C)C)c(O)c3)c3c(N)ncnc32)CC1
EC50 (MDA-MB-231 [22]): 9.71 µM

COc1cc(-c2nn(CCN3CCC(N(C)C)CC3)c3ncnc(N)c23)ccc1NCc1ccccn1
EC50 (MDA-MB-231 [22]): 40.2 µM

Cc1ccc(-c2nn(CCN3CCC(CCN(C)C)CC3)c3ncnc(N)c23)cc1
IC50 [13]: > 10 µM
IC50 [14]: > 10 µM
Activity (MCF7 [21]): Active
IC50 [10]: > 10 µM
IC50 [17]: > 10 µM

COc1cc(-c2nn(CCN3CCC(N(C)C)CC3)c3ncnc(N)c23)ccc1CC(=O)N1CCCC1
EC50 (MDA-MB-231 [22]): > 100 µM

CCOC(Cn1nc(-c2ccoc2)c2c(N)ncnc21)OCC
EC50 (MCF7 [12]): 43.1 µM

COc1cc(-c2nn(CCN3CCC(CN(C)C)CC3)c3ncnc(N)c23)ccc1NC(=O)OC(C)(C)C
Activity [11]: Non-toxic
